Measurements taken from patent publication US8871756B2 (Hoffmann-La Roche Inc., priority 2011, dated 2014).

Tested on: RSV Long strain
Test: Viral cytopathic effect (CPE) assay, anti-RSV activity
Format: cell-based, Respiratory Syncytial Virus
Conditions: RSV Long strain (ATCC); cell viability after 6 days, Cell Counting kit-8
How it was run: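 Cells (6×10^3/well, DMEM with 10% FBS) were infected next day with RSV Long strain, at a dose giving approximately 80–90% CPE, alongside serial half-log compound dilutions. Viability was read after 6 days by CCK-8 absorbance at 450 nm (reference 630 nm), and EC50 was derived from it.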

SMILES | EC50 [µM]
Cc1ccc2nc(N3CC[S+]([O-])c4ccccc4C3)nc(NCC3(CN)COC3)c2c1 (single isomer, unassigned; (-)) [Example 62-2] | 0.0017

Same assay, conditions: human respiratory syncytial virus, 144 h, RSV Long strain (ATCC); cell viability after 6 days, Cell Counting kit-8

SMILES | EC50 [µM]
Cc1ccc2nc(N3CCS(=O)(=O)c4ccccc4C3)cc(NCC(C)(C)CN)c2c1 [Example 9-14, N-[2-(1,1-Dioxido-2,3-dihydro-1,4-benzothiazepin-4(5H)-yl)-6-methylquinolin-4-yl]-2,2-dimethylpropane-1,3-diamine] | 0.025
Cc1ccc2nc(N3CCC(F)(F)c4ccccc4C3)cc(NCC3(CN)COC3)c2c1 [Example 110-15, N-{[3-(Aminomethyl)oxetan-3-yl]methyl}-2-(5,5-difluoro-1,3,4,5-tetrahydro-2H-2-benzazepin-2-yl)-6-methylquinolin-4-amine] | 0.004
Cc1ccc2nc(N3CCS(=O)(=O)c4ccccc4C3)cc(NCC3(N)CCOC3)c2c1 (stereo not shown) [Example 2-1, N-[(3-Aminotetrahydrofuran-3-yl)methyl]-2-(1,1-dioxido-2,3-dihydro-1,4-benzothiazepin-4(5H)-yl)-6-methylquinolin-4-amine] | 0.024
[2H]C([2H])([2H])c1ccc2nc(N3CC[S+]([O-])c4ccccc4C3)nc(NCC3(CN)COC3)c2c1 (stereo not shown) [Example 107, N-{[3-(Aminomethyl)oxetan-3-yl]methyl}-6-trideuteriomethyl-2-(1-oxido-2,3-dihydro-1,4-benzothiazepin-4(5H)-yl)quinazolin-4-amine] | 0.001
Cc1ccc2nc(N3CCS(=O)(=O)c4ccccc4C3)cc(NCC3(N)CCCCC3)c2c1 [Example 2-11, N-[(1-Aminocyclohexyl)methyl]-2-(1,1-dioxido-2,3-dihydro-1,4-benzothiazepin-4(5H)-yl)-6-methylquinolin-4-amine] | 0.008
NCCNc1cc(N2CCS(=O)(=O)c3ccccc3C2)nc2ccc([N+](=O)[O-])cc12 [Example 9-20, N-[2-(1,1-Dioxido-2,3-dihydro-1,4-benzothiazepin-4(5H)-yl)-6-nitroquinolin-4-yl]ethane-1,2-diamine] | 0.76
NCCNc1cc(N2CCCc3ccccc3C2)nc2ccc(Br)cc12 [Example 118-10, N-[6-Bromo-2-(1,3,4,5-tetrahydro-2H-2-benzazepin-2-yl)quinolin-4-yl]ethane-1,2-diamine] | 0.289
NCC(F)(F)CNc1cc(N2CCS(=O)(=O)c3ccccc3C2)nc2ccc(Cl)cc12 [Example 3-20, N-[6-Chloro-2-(1,1-dioxido-2,3-dihydro-1,4-benzothiazepin-4(5H)-yl)quinolin-4-yl]-2,2-difluoropropane-1,3-diamine] | 0.507
Cc1ccc2nc(N3CCS(=O)(=O)c4ccccc4C3)cc(NCC3CCNCC3)c2c1 [Example 3-29, 2-(1,1-Dioxido-2,3-dihydro-1,4-benzothiazepin-4(5H)-yl)-6-methyl-N-(piperidin-4-ylmethyl)quinolin-4-amine] | 0.022
Cc1ccc2nc(N3CCS(=O)(=O)c4ccccc4C3)cc(N3CCC(N)CC3)c2c1 [Example 9-27, 1-[2-(1,1-Dioxido-2,3-dihydro-1,4-benzothiazepin-4(5H)-yl)-6-methylquinolin-4-yl]piperidin-4-amine] | 0.797
Cc1ccc2nc(N3CC[S+]([O-])c4ccccc4C3)cc(NCCN)c2c1 (stereo not shown) [Example 18-10, N-[6-Methyl-2-(1-oxido-2,3-dihydro-1,4-benzothiazepin-4(5H)-yl)quinolin-4-yl]ethane-1,2-diamine] | 0.011
Cc1ccc2nc(N3CCS(=O)(=O)c4ccccc4C3)cc(NC3COC3)c2c1 [Example 3-47, 2-(1,1-Dioxido-2,3-dihydro-1,4-benzothiazepin-4(5H)-yl)-6-methyl-N-(oxetan-3-yl)quinolin-4-amine] | 0.101
Cc1ccc2nc(N3CCSc4ccccc4C3)nc(N)c2c1 [Example 58, 2-(2,3-Dihydro-1,4-benzothiazepin-4(5H)-yl)-6-methylquinazolin-4-amine] | 2.77
CCc1ccc2nc(N3CCS(=O)(=O)c4ccccc4C3)cc(NCCN)c2c1 [Example 9-10, N-[2-(1,1-Dioxido-2,3-dihydro-1,4-benzothiazepin-4(5H)-yl)-6-ethylquinolin-4-yl]ethane-1,2-diamine] | 0.037
Cc1ccc2nc(N3CCS(=O)(=O)c4ccccc4C3)cc(N3CCC(C)(O)C3)c2c1 (stereo not shown) [Example 3-45, 1-[2-(1,1-Dioxido-2,3-dihydro-1,4-benzothiazepin-4(5H)-yl)-6-methylquinolin-4-yl]-3-methylpyrrolidin-3-ol] | 5.23
Cc1cccc2c(NCCCN)cc(N3CCS(=O)(=O)c4ccccc4C3)nc12 [Example 17-5, N-[2-(1,1-Dioxido-2,3-dihydro-1,4-benzothiazepin-4(5H)-yl)-8-methylquinolin-4-yl]propane-1,3-diamine] | 1.5
Cc1ccc2nc(N3CCS(=O)(=O)c4ccccc4C3)cc(NC[C@@H](O)CO)c2c1 [Example 3-11, (2R)-3-{[2-(1,1-Dioxido-2,3-dihydro-1,4-benzothiazepin-4(5H)-yl)-6-methylquinolin-4-yl]amino}propane-1,2-diol] | 0.054

SMILES | EC50 [µM]
COc1ccc2c(c1)S(=O)(=O)CCN(c1cc(N)c3cc(C)ccc3n1)C2 [Example 20-1, 2-(8-Methoxy-1,1-dioxido-2,3-dihydro-1,4-benzothiazepin-4(5H)-yl)-6-methylquinolin-4-amine] | 0.073
CS(=O)(=O)c1ccc2c(c1)CCCN(c1cc(NCCN)c3ccccc3n1)C2 [Example 120-1, N-{2-[7-(Methylsulfonyl)-1,3,4,5-tetrahydro-2H-2-benzazepin-2-yl]quinolin-4-yl}ethane-1,2-diamine] | 2.19
CNCCNc1cc(N2CCS(=O)(=O)c3ccccc3C2)nc2ccc(Cl)cc12 [Example 9-32, N-[6-Chloro-2-(1,1-dioxido-2,3-dihydro-1,4-benzothiazepin-4(5H)-yl)quinolin-4-yl]-N′-methylethane-1,2-diamine] | 0.063
Cc1ccc2nc(N3CCS(=O)(=O)c4ccccc4C3)cc(N3CCN(C)CC3)c2c1 [Example 5-6, 4-[6-Methyl-4-(4-methylpiperazin-1-yl)quinolin-2-yl]-2,3,4,5-tetrahydro-1,4-benzothiazepine 1,1-dioxide] | 2.06
Cc1ccc2nc(N3CCC(F)(F)c4ccccc4C3)cc(NCCCO)c2c1 [Example 110-6, 3-{[2-(5,5-Difluoro-1,3,4,5-tetrahydro-2H-2-benzazepin-2-yl)-6-methylquinolin-4-yl]amino}propan-1-ol] | 4.28
Cc1ccc2nc(N3CCS(=O)(=O)c4ccccc4C3)cc(NC(=O)C(C)(C)N)c2c1 [Example 40-2, N-[2-(1,1-Dioxido-2,3-dihydro-1,4-benzothiazepin-4(5H)-yl)-6-methylquinolin-4-yl]-2-methylalaninamide] | 4.66
NCC1(CNc2nc(N3CC[S+]([O-])c4ccccc4C3)nc3ccc(CO)cc23)COC1 (stereo not shown) [Example 109-1, [4-({[3-(Aminomethyl)oxetan-3-yl]methyl}amino)-2-(1-oxido-2,3-dihydro-1,4-benzothiazepin-4(5H)-yl)quinazolin-6-yl]methanol] | 0.00088
Cc1ccc2nc(N3CCS(=O)(=O)c4ccccc4C3)cc(NCCC(N)C(F)(F)F)c2c1 (stereo not shown) [Example 42-1, N^˜1^˜-[2-(1,1-Dioxido-2,3-dihydro-1,4-benzothiazepin-4(5H)-yl)-6-methylquinolin-4-yl]-4,4,4-trifluorobutane-1,3-diamine] | 8.95
Cc1ccc2nc(N3CCS(=O)(=O)c4ccccc4C3)cc(NCC(O)CN)c2c1 (stereo not shown) [Example 9-7, 1-Amino-3-{[2-(1,1-dioxido-2,3-dihydro-1,4-benzothiazepin-4(5H)-yl)-6-methylquinolin-4-yl]amino}propan-2-ol] | 0.002
Cc1ccc2nc(N3CCS(=O)(=O)c4ccccc4C3)cc(N3CCC(CN)CC3)c2c1 [Example 9-1, 1-{1-[2-(1,1-Dioxido-2,3-dihydro-1,4-benzothiazepin-4(5H)-yl)-6-methylquinolin-4-yl]piperidin-4-yl}methanamine] | 2.35
NCC1(CNc2cc(N3CCS(=O)(=O)c4ccccc4C3)nc3ccc(CO)cc23)COC1 [Example 106, [4-({[3-(Aminomethyl)oxetan-3-yl]methyl}amino)-2-(1,1-dioxido-2,3-dihydro-1,4-benzothiazepin-4(5H)-yl)quinolin-6-yl]methanol] | 0.002
CS(=O)(=O)c1ccc2nc(N3CCCc4ccccc4C3)cc(NCCN)c2c1 [Example 118-24, N-[6-(Methylsulfonyl)-2-(1,3,4,5-tetrahydro-2H-2-benzazepin-2-yl)quinolin-4-yl]ethane-1,2-diamine] | 6.45
Cc1ccc2nc(N3CCS(=O)(=O)c4ccccc4C3)cc(NCC3(N)COC3)c2c1F [Example 3-25, N-[(3-Aminooxetan-3-yl)methyl]-2-(1,1-dioxido-2,3-dihydro-1,4-benzothiazepin-4(5H)-yl)-5-fluoro-6-methylquinolin-4-amine] | 0.022
O=S1(=O)CCN(c2cc(NCC3(NCc4ccccc4)COC3)c3cc(Cl)ccc3n2)Cc2cc(F)ccc21 [Example 3-2, N-{[3-(Benzylamino)oxetan-3-yl]methyl}-6-chloro-2-(7-fluoro-1,1-dioxido-2,3-dihydro-1,4-benzothiazepin-4(5H)-yl)quinolin-4-amine] | 3.05
CC(C)(N)CNc1cc(N2CCS(=O)(=O)c3ccccc3C2)nc2ccccc12 [Example 5-4, N˜1˜-[2-(1,1-Dioxido-2,3-dihydro-1,4-benzothiazepin-4(5H)-yl)quinolin-4-yl]-2-methylpropane-1,2-diamine] | 0.326
NCCCNc1cc(N2CCS(=O)(=O)c3ccccc3C2)nc2ccc(C(N)=O)cc12 [Example 81, 4-[(3-Aminopropyl)amino]-2-(1,1-dioxido-2,3-dihydro-1,4-benzothiazepin-4(5H)-yl)quinoline-6-carboxamide] | 0.353
